The values below come from PMC5454376, “Molecular mechanism of Gαi activation by non-GPCR proteins with a Gα-Binding and Activating motif” (Nature Communications, 2017).

The experiment has as its system Gαi3 N269D. Kind of experiment: Co-immunoprecipitation in HEK293T cells, Gαi3 N269D versus WT. Particulars: HEK293T lysates, FLAG-tagged Gαi3 N269D vs WT; GST-Ric-8A 1 μg added. The format is binding. Here is the method: HEK293T cells (American Type Culture Collection) were grown at 37 °C in DMEM supplemented with 10% FBS, 100 U ml^−1 penicillin, 100 μg ml^−1 streptomycin, 1% L-glutamine and 5% CO2. DNA plasmids encoding for C-terminally 3xFLAG-tagged Gαi3 (ref. [25]) or an empty plasmid (p3xFLAG-CMV-14) were transfected using the calcium phosphate method in 10 cm dishes. The DNA amount for the Gαi3 N269D plasmid was threefold (12 μg) of that for Gαi3 WT (4 μg) to equalize their expression levels. Cells were collected 48 h after transfection by gently scrapping in PBS, centrifuged and resuspended in 1 ml of lysis buffer (20 mM HEPES (pH 7.2), 5 mM Mg(CH3COO)2, 125 mM K(CH3COO), 0.4% (v:v) Triton X-100, 1 mM DTT, 10 mM β-glycerophosphate and 0.5 mM Na3VO4 supplemented with a protease inhibitor cocktail (Sigma; catalogue #S8830)) and cleared (14,000g for 10 min) before use. Lysates were supplemented with 1 μg of purified GST-Ric-8A (12–491)[22] and 2 μg of mouse anti-FLAG antibody (Sigma F1804), and incubated for 4 h at 4 °C with rotation. BSA-blocked Protein G agarose beads (Thermo-Scientific) were added and tubes incubated for additional 90 min at 4 °C. Beads were washed four times (4.3 mM Na2HPO4, 1.4 mM KH2PO4, pH 7.4, 137 mM NaCl, 2.7 mM KCl, 0.1% (v/v) Tween 20, 10 mm MgCl2, 5 mm EDTA and 1 mm DTT) and immunoprecipitated proteins eluted by boiling in Laemmli sample buffer. […]

For “Full-length GIV: full-length GIV from HEK293T cells, 1,870 amino acids”, the “co-immunoprecipitation with nucleotide-free-mimicking mutant compared with WT” value is reported as “as efficiently as with the wild-type (WT) protein”.
